Measurements: patent US20240059703A1 (AMGEN INC., priority 2021, published 2024)

What was measured:
KRAS G12C = KRAS G12C (Homo sapiens (Human), UniProt P01116, C118A/G12C); assay: 2 h coupled exchange assay; format: biochemical; conditions: Avg 2 h Coupled exchange IC50, 2 h compound pre-incubation
Procedure: The term “2 h coupled exchange assay” or “20 h coupled exchange assay” as used herein refers to the assay described in the Section entitled “BIOLOGICAL EVALUATION.”

[1] = tested on: MIA PaCa-2 (human pancreatic carcinoma) cells; assay: Cell Viability Assay (CellTiter-Glo), MIA PaCa-2; format: cell-based; conditions: Homo sapiens, MIA PaCa-2, 72 h
Procedure: Serially-diluted compound or DMSO was added to the cells, and plates were incubated at 37° C., 5% CO2 for 72 h. Cell viability was measured using a CellTiter-Glo® Luminescent Cell Viability Assay kit (Promega) according to the manufacturer's protocol. The luminescence signal of treated samples was normalized to DMSO control, and data were analyzed using a 4-parameter logistic model to calculate IC50 values.

[2] = tested on: A549 (human lung carcinoma) cells; assay: Cell Viability Assay (CellTiter-Glo), A549; format: cell-based; conditions: Homo sapiens, A549, 72 h
Procedure, shortened: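 Cells grown in RPMI 1640 with 10% FBS were seeded at 1.67E+04 cells/mL and left overnight at 37° C., 5% CO2. They were then exposed to serially diluted compound for 72 h, after which CellTiter-Glo luminescence was read, normalized to DMSO, and fitted to a 4-parameter logistic model for IC50.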

[3] = SOS-mediated nucleotide exchange

Chain of KRAS G12C (P01116 other isoform, or with tags, fused parts or gaps G12C/C118A): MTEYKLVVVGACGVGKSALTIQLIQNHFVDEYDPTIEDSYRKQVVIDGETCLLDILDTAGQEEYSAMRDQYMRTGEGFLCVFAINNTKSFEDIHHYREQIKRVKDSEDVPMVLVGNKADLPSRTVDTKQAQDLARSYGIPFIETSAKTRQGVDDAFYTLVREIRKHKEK

Row | Structure (SMILES) | IC50 (KRAS G12C) | IC50 [1] | IC50 [2] | IC50 (KRAS G12C; [3])
1 | C=CC(=O)N1CC2(CCN(c3nc4c(c(-c5c(C)c(Cl)cc6cnn(C)c56)c3F)CCN(C3COC3)C4)C2)C1 (atropisomer, axis not shown; (M)) [Example 14-107, (M)-1-(6-(4-(5-chloro-1,6-dimethyl-1H-indazol-7-yl)-3-fluoro-7-(3-oxetanyl)-5,6,7,8-tetrahydro-1,7-naphthyridin-2-yl)-2,6-diazaspiro[3.4]octan-2-yl)-2-propen-1-one] | 13 nM | 30 nM | 15300 nM | 
2 | C=CC(=O)N1CC2(CCN(c3nc4ccccc4c(-c4cccc5sc(N)nc45)c3C#N)C2)C1 [Example 2-3, 4-(2-amino-1,3-benzothiazol-4-yl)-2-(2-(2-propenoyl)-2,6-diazaspiro[3.4]octan-6-yl)-3-quinolinecarbonitrile] |  | 693 nM | 3120 nM | 537 nM
3 | C=CC(=O)N1CC2(CCN(c3nc4c(c(-c5cc(O)ccc5C)c3Cl)COC(C)(C)C4)C2)C1 (single isomer, unassigned) [Example 2-81, (P)-1-(6-(3-chloro-4-(5-hydroxy-2-methylphenyl)-7,7-dimethyl-7,8-dihydro-5H-pyrano[4,3-b]pyridin-2-yl)-2,6-diazaspiro[3,4]octan-2-yl)-2-propen-1-one] |  | 58 nM | > 5000 nM | 53 nM
4 | C=CC(=O)N1CC2(CCN(c3nc(-c4cccc5cccc(C)c45)c4c(n3)N(C)CCO4)C2)C1 [Example 1-28, 1-(6-(8-methyl-4-(8-methyl-1-naphthalenyl)-7,8-dihydro-6H-pyrimido[5,4-b][1,4]oxazin-2-yl)-2,6-diazaspiro[3.4]octan-2-yl)-2-propen-1-one] |  | 9360 nM | 11500 nM | 2980 nM
5 | C=CC(=O)N1CC2(CCN(c3nc4c(c(-c5c(C)c(C)cc6cnn(C)c56)c3C#N)COC(C)(C)C4)C2)C1 (single isomer, unassigned) [Example 13-92, (P)-7,7-dimethyl-2-(2-(2-propenoyl)-2,6-diazaspiro[3.4]octan-6-yl)-4-(1,5,6-trimethyl-1H-indazol-7-yl)-7,8-dihydro-5H-pyrano[4,3-b]pyridine-3-carbonitrile] |  | 9 nM | > 5000 nM | 13 nM
6 | C=CC(=O)N1CC2(C1)CN(c1nc3c(c(-c4c(C)ccc5[nH]ncc45)c1C#N)CCC(C)C3)CC2(F)F (stereo not drawn) [Example 2-5, 2-(8,8-difluoro-2-(2-propenoyl)-2,6-diazaspiro[3.4]octan-6-yl)-7-methyl-4-(5-methyl-1H-indazol-4-yl)-5,6,7,8-tetrahydro-3-quinolinecarbonitrile] |  | 943 nM | 6250 nM | 42 nM
7 | C=C(Cl)C(=O)N1CC2(CCN(c3nc4c(c(-c5c(C)ccc6[nH]ncc56)c3C#N)CCC(C)(C)C4)C2)C1 [Example 13-3, 2-(2-(2-chloro-2-propenoyl)-2,6-diazaspiro[3.4]octan-6-yl)-7,7-dimethyl-4-(5-methyl-1H-indazol-4-yl)-5,6,7,8-tetrahydro-3-quinolinecarbonitrile] |  | 625 nM | 1250 nM | 166 nM
8 | C=CC(=O)N1CC2(CCN(c3nc4c(c(-c5cc(O)cc6ccccc56)c3F)COC(C)(C)C4)C2)C1 [Example 14-68, 1-(6-(3-fluoro-4-(3-hydroxy-1-naphthalenyl)-7,7-dimethyl-7,8-dihydro-5H-pyrano[4,3-b]pyridin-2-yl)-2,6-diazaspiro[3.4]octan-2-yl)-2-propen-1-one] | 50 nM | 91 nM | > 5000 nM | 
9 | C=CC(=O)N1CC2(CCN(c3nc(-c4c(C)ccc5[nH]ncc45)c4c(n3)N(C)CC4)C2)C1 [Example 5, 1-(6-(7-methyl-4-(5-methyl-1H-indazol-4-yl)-6,7-dihydro-5H-pyrrolo[2,3-d]pyrimidin-2-yl)-2,6-diazaspiro[3.4]octan-2-yl)prop-2-en-1-one] |  | 12900 nM | > 25000 nM | 181000 nM
10 | C=CC(=O)N1CC2(CCN(c3cc4ccccc4c(-c4c(C)ccc5[nH]ncc45)c3C#N)C2)C1 [Example 1-2, 3-(2-acryloyl-2,6-diazaspiro[3.4]octan-6-yl)-1-(5-methyl-1H-indazol-4-yl)-2-naphthonitrile] |  | 580 nM | 3710 nM | 158 nM
11 | C=CC(=O)N1CC2(CCN(c3nc4c(c(-c5ccc(F)c6sc(N)nc56)c3C#N)COC(C)(C)C4)C2)C1 [Example 14-56, 4-(2-amino-7-fluoro-1,3-benzothiazol-4-yl)-7,7-dimethyl-2-(2-(2-propenoyl)-2,6-diazaspiro[3.4]octan-6-yl)-7,8-dihydro-5H-pyrano[4,3-b]pyridine-3-carbonitrile] | 93 nM | 135 nM | > 5000 nM | 
12 | C=CC(=O)N1CC2(CCN(c3nc4c(c(-c5c(C)ccc6[nH]ncc56)c3C#N)CCC4)C2)C1 [Example 1-3, 4-(5-methyl-1H-indazol-4-yl)-2-(2-(2-propenoyl)-2,6-diazaspiro[3.4]octan-6-yl)-6,7-dihydro-5H-cyclopenta[b]pyridine-3-carbonitrile] |  | 847 nM | 7420 nM | 154 nM
13 | C=CC(=O)N1CC2(CCN(c3nc4c(c(-c5cc(O)c(F)c6ccccc56)c3C#N)COC(C)(C)C4)C2)C1 (single isomer, unassigned) [Example 13-78, (P)-4-(4-fluoro-3-hydroxy-1-naphthalenyl)-7,7-dimethyl-2-(2-(2-propenoyl)-2,6-diazaspiro[3.4]octan-6-yl)-7,8-dihydro-5H-pyrano[4,3-b]pyridine-3-carbonitrile] |  | 842 nM | > 5000 nM | 76 nM

Now from value to compound:

Row | IC50 (KRAS G12C) | IC50 [1] | IC50 [2] | IC50 (KRAS G12C; [3]) | Structure (SMILES)
14 | 641 nM | 738 nM | > 5000 nM |  | Cc1ncsc1N1CCc2c(nc(N3CCC4(CN(C(=O)/C=C/CN(C)C)C4)C3)c(C#N)c2-c2ccccc2F)C1 [Example 21-31, 2-(2-((2E)-4-(dimethylamino)-2-butenoyl)-2,6-diazaspiro[3.4]octan-6-yl)-4-(2-fluorophenyl)-7-(4-methyl-1,3-thiazol-5-yl)-5,6,7,8-tetrahydro-1,7-naphthyridine-3-carbonitrile]
15 | 589 nM | 335 nM | 14600 nM |  | C=CC(=O)N1CC2(CCN(c3nc4c(c(-c5c(C)ccc6cnn(C)c56)c3C)CCN(C3(C)COC3)C4)C2)C1 [Example 36-1, 1-(6-(4-(1,6-dimethyl-1H-indazol-7-yl)-3-methyl-7-(3-methyl-3-oxetanyl)-5,6,7,8-tetrahydro-1,7-naphthyridin-2-yl)-2,6-diazaspiro[3.4]octan-2-yl)-2-propen-1-one]
16 | 990 nM | 546 nM | 15300 nM |  | C=CC(=O)N1CC2(CCN(c3nc4c(c(-c5cccc6c5NCCC6)c3C)CCN(C(C)C)C4)C2)C1 [Example 18-5, 1-(6-(3-methyl-7-(2-propanyl)-4-(1,2,3,4-tetrahydro-8-quinolinyl)-5,6,7,8-tetrahydro-1,7-naphthyridin-2-yl)-2,6-diazaspiro[3.4]octan-2-yl)-2-propen-1-one]
17 | 35 nM | 1170 nM | > 5000 nM |  | C=CC(=O)N1CC2(CCN(c3nc4c(c(-c5cc(O)ccc5F)c3C#N)CCN(c3scnc3C)C4)C2)C1 [Example 21-19, 4-(2-fluoro-5-hydroxyphenyl)-7-(4-methyl-1,3-thiazol-5-yl)-2-(2-(2-propenoyl)-2.6-diazaspiro[3.4]octan-6-yl)-5,6,7,8-tetrahydro-1,7-naphthyridine-3-carbonitrile]
18 | 90 nM | 461 nM | > 5000 nM |  | C=CC(=O)N1CC2(CCN(c3nc4c(c(-c5ccccc5F)c3C#N)CCN(C3CC3)C4)C2)C1 [Example 21-37, 7-cyclopropyl-4-(2-fluorophenyl)-2-(2-(2-propenoyl)-2,6-diazaspiro[3.4]octan-6-yl)-5,6,7,8-tetrahydro-1,7-naphthyridine-3-carbonitrile]
19 | 98 nM | 707 nM | > 5000 nM |  | C=CC(=O)N1CC2(CCN(c3nc4c(c(-c5ccc(F)cc5F)c3C#N)COC(c3scnc3C)C4)C2)C1 [Example 23-17, (7R)-4-(2,4-difluorophenyl)-7-(4-methyl-1,3-thiazol-5-yl)-2-(2-(2-propenoyl)-2,6-diazaspiro[3.4]octan-6-yl)-7,8-dihydro-5H-pyrano[4,3-b]pyridine-3-carbonitrile (7S)-4-(2,4-difluorophenyl)-7-(4-methyl-1,3-thiazol-5-yl)-2-(2-(2-propenoyl)-2,6-diazaspiro[3.4]octan-6-yl)-7,8-dihydro-5H-pyrano[4,3-b]pyridine-3-carbonitrile]
20 | 72 nM | 918 nM | 3690 nM |  | C=CC(=O)N1CC2(CCN(c3nc4c(c(-c5ccccc5F)c3C#N)CCC(c3scnc3C)=C4)C2)C1 [Example 23-7, 4-(2-fluorophenyl)-7-(4-methyl-1,3-thiazol-5-yl)-2-(2-(2-propenoyl)-2,6-diazaspiro[3.4]octan-6-yl)-5,6-dihydro-3-quinolinecarbonitrile]
21 | 973 nM | 5250 nM | 9880 nM |  | C=CC(=O)N1CC2(CCN(c3nc4c(c(-c5ccccc5F)c3C#N)CCN(c3ncc(C)s3)C4)C2)C1 [Example 21-20, 4-(2-fluorophenyl)-7-(5-methyl-1,3-thiazol-2-yl)-2-(2-(2-propenoyl)-2.6-diazaspiro[3.4]octan-6-yl)-5,6,7,8-tetrahydro-1,7-naphthyridine-3-carbonitrile]
